Experiments:
[1] = tested on: P. falciparum 3D7 trophozoites; experiment: Metabolomic fingerprint profiling LC-MS; format: cell-based, Plasmodium falciparum; design: UDP-D-glucose / ADP-D-glucose: unit not given here; details: for Acetyllysine / N-acetyl-L-ornithine / N-carbamoyl-L-aspartate / NADPH / dAMP / dCMP / dTDP / dTMP / dTTP / dihydroorotate / orotate / DLH / DLS/SDL/SID / PD / PEE / PVNF / 3-phosphoglycerate / ADP-D-glucose / ATP / CDP / D-sedoheptulose-1/7-phosphate / FAD / GMP / NAD+ / NADP+ / Octoluse Bisphosphate / Pyroglutamic acid / UDP-D-glucose / UDP-D-glucuronate / UDP-N-acetyl-glucosamine / UDP / UMP / UTP / a-ketoglutarate / citrate/isocitrate / cytidine / dATP / dGMP/AMP / fumarate / glucose-1/6-phosphate / glycerate / guanine / guanosine / hypoxanthine / indole / inosine / nicotinate / ornithine / phosphoenolpyruvate / pyruvate / ribose-phosphate / sarcosine/alanine / sn-glycerol-3-phosphate / succinate/methylmalonic acid / uridine / xanthosine: S2 Table Metabolomics; for Acetyllysine: metabolite Acetyllysine; for N-acetyl-L-ornithine: metabolite N-acetyl-L-ornithine; for N-carbamoyl-L-aspartate: metabolite N-carbamoyl-L-aspartate; for NADPH: metabolite NADPH; for dAMP: metabolite dAMP; for dCMP: metabolite dCMP; for dTDP: metabolite dTDP; for dTMP: metabolite dTMP; for dTTP: metabolite dTTP; for dihydroorotate: metabolite dihydroorotate; for orotate: metabolite orotate; for DLH: peptide DLH; for DLS/SDL/SID: peptide DLS/SDL/SID; for PD: peptide PD; for PEE: peptide PEE; for PVNF: peptide PVNF; for 3-phosphoglycerate: metabolite 3-phosphoglycerate; for ADP-D-glucose: metabolite ADP-D-glucose; for ATP: metabolite ATP; for CDP: metabolite CDP; for CDP / D-sedoheptulose-1/7-phosphate / GMP / Octoluse Bisphosphate / UDP / UMP / UTP / citrate/isocitrate / dGMP/AMP / fumarate / glucose-1/6-phosphate / glycerate / guanine / guanosine / inosine / pyruvate / sarcosine/alanine / succinate/methylmalonic acid / uridine / xanthosine: change in metabolite level after compound treatment; for D-sedoheptulose-1/7-phosphate: metabolite D-sedoheptulose-1/7-phosphate; for FAD: metabolite FAD; for GMP: metabolite GMP; for NAD+: metabolite NAD+; for NADP+: metabolite NADP+; for Octoluse Bisphosphate: metabolite Octoluse Bisphosphate; for Pyroglutamic acid: metabolite Pyroglutamic acid; for UDP-D-glucose: metabolite UDP-D-glucose; for UDP-D-glucuronate: metabolite UDP-D-glucuronate; for UDP-N-acetyl-glucosamine: metabolite UDP-N-acetyl-glucosamine; for UDP: metabolite UDP; for UMP: metabolite UMP; for UTP: metabolite UTP; for a-ketoglutarate: metabolite a-ketoglutarate; for citrate/isocitrate: metabolite citrate/isocitrate; for cytidine: metabolite cytidine; for dATP: metabolite dATP; for dGMP/AMP: metabolite dGMP/AMP; for fumarate: metabolite fumarate; for glucose-1/6-phosphate: metabolite glucose-1/6-phosphate; for glycerate: metabolite glycerate; for guanine: metabolite guanine; for guanosine: metabolite guanosine; for hypoxanthine: metabolite hypoxanthine; for indole: metabolite indole; for inosine: metabolite inosine; for 2_3-Diphosphoglyceric acid / 4-phosphopantothenate / 6-phospho-D-gluconate / FMN / IMP / Pyrophosphate / Sedoheptoluse bisphosphate / cyclic-AMP / glutathione disulfide / lactate / myo-inositol: metabolite level change after treatment; for nicotinate: metabolite nicotinate; for ornithine: metabolite ornithine; for phosphoenolpyruvate: metabolite phosphoenolpyruvate; for pyruvate: metabolite pyruvate; for ribose-phosphate: metabolite ribose-phosphate; for sarcosine/alanine: metabolite sarcosine/alanine; for sn-glycerol-3-phosphate: metabolite sn-glycerol-3-phosphate; for succinate/methylmalonic acid: metabolite succinate/methylmalonic acid; for uridine: metabolite uridine; for xanthosine: metabolite xanthosine
P. falciparum = experiment: EC50 listed in S2 Table Metabolomics (used to set the concentration tested); format: cell-based; details: Plasmodium falciparum; EC50 used for Factor_XEC50 in metabolomics; read-out: EC50_nM

## Cc1ccc(-c2cc3c(nn2)-c2ccccc2C3=O)cc1 [MMV666021]
[1]
  Acetyllysine: -0.3916
  N-acetyl-L-ornithine: -0.1425
  N-carbamoyl-L-aspartate: 3.794
  NADPH: 1.165
  dAMP: -0.6653
  dCMP: -0.7362
  dTDP: -1.533
  dTMP: -1.5256
  dTTP: -1.181
  dihydroorotate: 4.247
  orotate: -2.195
  DLH: 0.5354
  DLS/SDL/SID: 0.5895
  PD: 0.02372
  PEE: 0.1996
  PVNF: 0.3334
  3-phosphoglycerate: 0.4336
  ADP-D-glucose: 0.0706
  ATP: 0.08889
  CDP: -1.433
  D-sedoheptulose-1/7-phosphate: -0.7013
  FAD: 0.04196
  GMP: 1.198
  NAD+: -0.07934
  NADP+: 0.07896
  Octoluse Bisphosphate: 0.0421
  Pyroglutamic acid: -0.4992
  UDP-D-glucose: 0.003691
  UDP-D-glucuronate: -0.1073
  UDP-N-acetyl-glucosamine: -0.2024
  UDP: -2.005
  UMP: -0.6482
  UTP: -1.713
  a-ketoglutarate: -0.6601
  citrate/isocitrate: -2.126
  cytidine: 0.5518
  dATP: 0.3766
  dGMP/AMP: -0.5358
  fumarate: 0.2361
  glucose-1/6-phosphate: 0.01993
  glycerate: -1.131
  guanine: -0.835
  guanosine: -1.803
  hypoxanthine: -0.06084
  indole: -0.09156
  inosine: -0.5269
  2_3-Diphosphoglyceric acid: -0.1865
  4-phosphopantothenate: -0.7776
  6-phospho-D-gluconate: 0.009051
  FMN: 0.04698
  IMP: -0.1163
  Pyrophosphate: -0.09516
  Sedoheptoluse bisphosphate: -0.2318
  cyclic-AMP: -0.2358
  glutathione disulfide: -0.3199
  lactate: -0.9153
  myo-inositol: -1.23
  nicotinate: -1.397
  ornithine: 0.08018
  phosphoenolpyruvate: 0.1844
  pyruvate: -1.786
  ribose-phosphate: 0.5392
  sarcosine/alanine: -0.3874
  sn-glycerol-3-phosphate: 0.4697
  succinate/methylmalonic acid: -0.7859
  uridine: -1.3045
  xanthosine: -0.5693
P. falciparum
  EC50: 94.4 nM

## COc1ccc(NC(=O)C2c3ccccc3C(=O)N(CC(C)C)C2c2cccs2)cc1Cl (stereo not drawn) [MMV000642]
[1]
  Acetyllysine: -5.193
  N-acetyl-L-ornithine: -3.747
  N-carbamoyl-L-aspartate: -2.41
  NADPH: -0.3813
  dAMP: 2.141
  dCMP: 1.187
  dTDP: 1.699
  dTMP: 3.58
  dTTP: 1.5
  dihydroorotate: -2.555
  orotate: -0.348
  DLH: -5.968
  DLS/SDL/SID: -3.9977
  PD: -2.5956
  PEE: -3.5386
  PVNF: -6.505
  3-phosphoglycerate: -0.2719
  ADP-D-glucose: -0.1906
  ATP: -1.554
  CDP: -0.7723
  D-sedoheptulose-1/7-phosphate: -1.211
  FAD: -1.709
  GMP: -1.9066
  NAD+: -0.5171
  NADP+: -0.1638
  Octoluse Bisphosphate: -2.57
  Pyroglutamic acid: 0.06474
  UDP-D-glucose: -0.2074
  UDP-D-glucuronate: -0.1541
  UDP-N-acetyl-glucosamine: -0.04904
  UDP: -1.27
  UMP: -0.4497
  UTP: -1.308
  a-ketoglutarate: -0.0007361
  citrate/isocitrate: -0.3751
  cytidine: 0.1777
  dATP: 0.01445
  dGMP/AMP: -0.6011
  fumarate: -0.3143
  glucose-1/6-phosphate: -1.542
  glycerate: -0.9599
  guanine: 0.2177
  guanosine: 0.8357
  hypoxanthine: -0.2894
  indole: -0.1989
  inosine: 0.04742
  2_3-Diphosphoglyceric acid: -1.07
  4-phosphopantothenate: -0.7331
  6-phospho-D-gluconate: -0.5035
  FMN: -0.2051
  IMP: -0.1621
  Pyrophosphate: -1.141
  Sedoheptoluse bisphosphate: -1.388
  cyclic-AMP: -0.8649
  glutathione disulfide: -0.7288
  lactate: -1.097
  myo-inositol: -1.4412
  nicotinate: 0.5786
  ornithine: 0.1669
  phosphoenolpyruvate: 0.08762
  pyruvate: -0.8949
  ribose-phosphate: -0.3617
  sarcosine/alanine: -1.783
  sn-glycerol-3-phosphate: 1.156
  succinate/methylmalonic acid: 0.05807
  uridine: 1.2
  xanthosine: -1.585
P. falciparum
  EC50: 20.2 nM

## CC1CCN(Cc2ccc(NC(=O)c3cc4ccc5cccnc5c4[nH]3)cc2)CC1 [MMV020549]
[1]
  Acetyllysine: -2.641
  N-acetyl-L-ornithine: -2.126
  N-carbamoyl-L-aspartate: 2.423
  NADPH: 1.7547
  dAMP: 0.4295
  dCMP: 0.8562
  dTDP: 0.3381
  dTMP: 0.4292
  dTTP: 0.08993
  dihydroorotate: 2.255
  orotate: 1.187
  DLH: -1.428
  DLS/SDL/SID: -2.953
  PD: -0.7061
  PEE: -0.9939
  PVNF: -1.512
  3-phosphoglycerate: -0.1099
  ADP-D-glucose: 0.08948
  ATP: -0.07943
  CDP: 0.4826
  D-sedoheptulose-1/7-phosphate: 0.04396
  FAD: -0.01225
  GMP: -0.01756
  NAD+: -0.1491
  NADP+: 0.1203
  Octoluse Bisphosphate: -0.3788
  Pyroglutamic acid: -0.1503
  UDP-D-glucose: -0.0815
  UDP-D-glucuronate: -0.1055
  UDP-N-acetyl-glucosamine: -0.09535
  UDP: 0.6579
  UMP: 0.21
  UTP: 0.1832
  a-ketoglutarate: -0.128
  citrate/isocitrate: -0.1069
  cytidine: -0.1996
  dATP: 0.1916
  dGMP/AMP: 0.3048
  fumarate: 0.06488
  glucose-1/6-phosphate: -0.4724
  glycerate: -0.06488
  guanine: 0.773
  guanosine: 1.397
  hypoxanthine: -0.1958
  indole: -0.3017
  inosine: -0.6136
  2_3-Diphosphoglyceric acid: -0.02531
  4-phosphopantothenate: 0.1058
  6-phospho-D-gluconate: -0.03173
  FMN: 0.1472
  IMP: 0.1864
  Pyrophosphate: 0.03595
  Sedoheptoluse bisphosphate: 0.04232
  cyclic-AMP: -0.09542
  glutathione disulfide: -0.2786
  lactate: -0.1188
  myo-inositol: -0.1919
  nicotinate: 0.02078
  ornithine: 0.04846
  phosphoenolpyruvate: -0.09349
  pyruvate: -0.1796
  ribose-phosphate: -0.1444
  sarcosine/alanine: -0.25
  sn-glycerol-3-phosphate: -0.2777
  succinate/methylmalonic acid: -0.1252
  uridine: 0.147
  xanthosine: -0.8804
P. falciparum
  EC50: 274 nM

From PMC4965013, “Open Source Drug Discovery with the Malaria Box Compound Collection for Neglected Diseases and Beyond” (PLoS Pathogens, 2016)
